Read-outs that look alike come from different tables or passages of the source.
Tests used:
[1] = system: Demodex mites; assay: in vitro assay of Demodex mite paralysis and/or killing (survival time)
Protocol: FIG. 1A-1E is a table summary of an in vitro assay of various agents on Demodex mites survival time and paralysis.
FIG. 1A-1E is a summary of various agents tested in an in vitro assay of Demodex mite paralysis and/or killing. The efficacy of various agents are evaluated in Demodex characterization and/or survival time experiments, including in terms of LT50 (time at which 50% of Demodex mites are killed) and/or associated time (in hours: min or total minutes).

[2] = oral paroxetine, rosacea; cited from earlier work
[3] = grouping of active agents in the summary, data in FIG. 1A-1E (not reproduced)

Structure (SMILES) | kills Demodex mites [1, 3] | paralyzes Demodex mites [1, 3] | other results
CC(NC(C)(C)C)C(=O)c1cccc(Cl)c1 (centres unmarked) [bupropion] | kill Demodex mites | – | –
CN(C)CCCN1c2ccccc2CCc2ccccc21 [imipramine] | kill Demodex mites | – | –
COCCCC/C(=N\OCCN)c1ccc(C(F)(F)F)cc1 [fluvoxamine] | kill Demodex mites | – | –
OC(CCN1CCCCC1)(c1ccccc1)C1CCCCC1 (centres unmarked) [trihexyphenidyl] | – | paralyzes Demodex mites | –
CC(CN1c2ccccc2Sc2ccccc21)N(C)C (centres unmarked) [promethazine] | kill Demodex mites | – | –
CNC1(C)C2CCC(C2)C1(C)C (centres unmarked) [mecamylamine] | kill Demodex mites | – | –
OCCOCCN1CCN(C2=Nc3ccccc3Sc3ccccc32)CC1 [quetiapine] | – | – | paralyzes Demodex mites [1]: paralyzes Demodex mites
Fc1ccc([C@@H]2CCNC[C@H]2COc2ccc3c(c2)OCO3)cc1 [paroxetine] | – | paralyzes Demodex mites | onset of Demodex mite paralysis ([1]; 1% paroxetine): within the first hour; period of Demodex mite paralysis ([1]; 1% paroxetine): at least 12 hours; patients indicative of improved clinical symptoms [2]: 42.9%; tolerability [2]: well-tolerated
C[N+]12CCC(CC1)C(OC(=O)C(O)(c1ccccc1)c1ccccc1)C2 (centres unmarked) [clidinium] | – | paralyzes Demodex mites | –
CC(C)C(=O)Oc1ccc(CO)cc1[C@H](CCN(C(C)C)C(C)C)c1ccccc1 [fesoterodine] | – | paralyzes Demodex mites | –
CN(C)CCC(c1ccc(Cl)cc1)c1ccccn1 (centres unmarked) [chlorpheniramine] | – | paralyzes Demodex mites | –
COc1ccc2c(c1)[C@]13CCCC[C@@H]1[C@H](C2)N(C)CC3 [dextromethorphan] | kill Demodex mites | – | –
CN(C)CCOC(c1ccccc1)c1ccccc1.Cn1c(=O)c2[nH]c(Cl)nc2n(C)c1=O [dimenhydrinate] | – | paralyzes Demodex mites | –
CN1[C@@H]2CC[C@H]1C[C@@H](OC(c1ccccc1)c1ccccc1)C2 [benztropine] | kill Demodex mites | – | –
CNCCC=C1c2ccccc2CCc2ccccc21 [nortriptyline] | – | paralyzes Demodex mites | –
Clc1ccc2c(c1)C(N1CCNCC1)=Nc1ccccc1O2 [amoxapine] | – | paralyzes Demodex mites | –

Reference: US20250275924A1, “Anticholinergic Agents and Muscarinic Agonists for the Treatment of Demodex Related Conditions” (ATTILLAPS HOLDINGS INC., priority 2022, published 2025)
